Values after ≈ are worked out from the molar mass of the structure shown.
Experiments:
HepG2 (Liver) = assay: MTT cell proliferation and viability assay on liver HEPG2 cancer cell line; assay type: cell-based; settings: Homo sapiens, 48 hours, read-out: IC50 cytotoxic activity
Description: In the following examples, human cancer cell line HepG2 (Liver) was grown in DMEM media supplemented with 10% bovine serum, 1× penicillin-streptomycin (Sigma-Aldrich) at 37° C. in a humidified chamber with 5% CO2. 5-Flurourasil (Sigma-Aldrich) was used as the reference drug (standard).
Cells were seeded (1×10^5 cells/well in triplicate) in a 96-well flat-bottom plate (Becton-Dickinson Lab ware) a day before treatment and grown. Stocks of all extracts/compounds (1.0 mg/ml) were made with 5% DMSO (Sigma-Aldrich), and further working solutions (100 μg/ml) were prepared in serum-free culture media. Cells were treated with four different doses (2, 6.2, 12.5, and 25 μg/ml; in triplicate) of the compounds in complete growth media, including reference drug, and further incubated for 48 hours.
On day 2 of treatment, cell proliferation and viability test was performed using TACS MTT Cell Proliferation and Viability Assay Kit (TACS), as per manufacturer's instructions. The relationship between surviving fraction and compound concentration was plotted to obtain the survival curve of cancer cell lines. The response parameter calculated was the IC50 value, which corresponds to the concentration required for 50% inhibition of cell viability.

[1] = Effect on biochemical parameters in mice serum; assay type: in vivo; settings: single i.p. 12 mg/kg, blood after 7 days; for Albumin / Bilirubin / Cholestrol / Creatinine / Globulin / Total Lipids / Triglycerides / Alanine amino transferase ALT / Alkaline phosphatase ALP / Aspartate amino transferase AST: Mean + S.D.; for Alanine amino transferase ALT / Alkaline phosphatase ALP / Aspartate amino transferase AST: 12 mg/kg
From the text: Male albino mice, weighing 18-20 g each, were used in a study. The mice were divided into three main groups, as follows. Group 1 is the untreated control group (5 mice); Group 2 is divided into two subgroups (5 mice in each subgroup), treated with either 5-FU (5-Fluorouracil) or DOX (Doxorubicin) as reference anticancer drugs. Group 3 is divided into ten subgroups (5 mice for each subgroup) and treated with the present substituted naphthyridinyl hydrazine compounds. The mice were housed in wide cages and well aerated rooms, and fed standard diets and clean water. Blood collection from the animals was done with heparinized cannula, and the mice were left alive.
For treatment, in Group 1, each mouse was given a single intraperitoneal (i.p.) injection of 0.1 mL DMSO; in Group 2, each mouse was given a single i.p. injection of 0.1 mL containing 12 mg/kg body weight of 5-FU or DOX dissolved in sterile water; and in Group 3, each mouse was given a single intraperitoneal injection of 0.1 mL containing 12 mg/kg body weight of the selected furan derivatives dissolved in 0.01% DMSO. Blood was collected after 7 days from all mouse groups.
The biochemical effects of formula 1 compounds on some liver enzymes in mouse blood serum was studied. Effects on aspartate and alanine aminotransferases (AST and ALT), and alkaline phosphatase (ALP), were examined using a blood auto analyzer, Olympus AV 400, Japan. Moreover, albumin, globulins, creatinine, total lipids, cholesterol, triglycerides, and bilirubin were evaluated, in comparison to treatment using 5-FU or DOX. Statistical analysis of the results was performed using Chi-square values (SPSS computer program).

HepG2 cells = assay: Phase contrast microscopy of morphological changes in HepG2 cells; assay type: cell-based, human; settings: for Morphological changes of HepG2 cells: 10 μg
Description: (§1) The cells were seeded in 6-well plates and allowed to adhere at 37° C. in a CO2 incubator. After 24 h, each well was treated with 10 μg compound and incubated for the indicated time. After 24 and 48 hrs, the cells were imaged by phase contrast microscope (Olympus CLX 41) to visualize morphological changes in HepG2 cells.
as §1, with “A. The” for “The”, “in” for “in a”, “μg of” for “μg”, “compound 6” for “compound”
A. Change in HepG2 cells after treatment with compound 6 was studied for morphological variations using the phase contrast microscopy.
Many characteristic features occur in cells undergoing a series of biochemical events during apoptosis. Various morphological changes, such as blebbing, loss of membrane asymmetry, cell shrinkage, nuclear fragmentation, chromatin condensation, and chromosomal DNA fragmentation occur.

HeLa cells = assay: Phase contrast microscopy of morphological changes in HeLa cells; assay type: cell-based; settings: after 12 and 24 hrs
Description: B. Similar studies were done with HeLa cells. Cells were seeded in 6-well plates and allowed to adhere at 37° C. in CO2 incubator. After 24 h, each well was treated with 4.6 μM 2,6P-OLA and incubated for the indicated time. After 12 and 24 h, the cells were imaged by phase contrast microscope (Olympus CLX 41) to visualize morphological changes in HeLa cells.
B. Change in LeLa cells after treatment with compound 6 was also studied for morphological variations using the phase contrast microscopy.

[2] = tested on: various human cancer cell lines; assay: Single-dose screening against a variety of human cancer cell lines; assay type: cell-based; settings: leukemia, non-small cell lung, colon, CNS, melanoma, ovarian, renal, prostate, breast cancer cell lines
From the text: FIGS. 5A and 5B are a chart showing results of single-dose screening for various human cancer cell lines treated with compound 6 (a substituted naphthyridinyl hydrazine according to the present invention).

A/G ratio [1] | Albumin [1] [mg/d1] | Bilirubin [1] [mg/dL] | Cholestrol [1] [mg/dL] | Creatinine [1] [mg/dL] | Globulin [1] [mg/dL] | Total Lipids [1] [mg/dL] | Triglycerides [1] [mg/dL] | melting point [°C] | SMILES | IC50 (HepG2 (Liver)) [mg/L] | Alanine amino transferase ALT [1] [IU/ml] | Alkaline phosphatase ALP [1] [k.k./dl] | Aspartate amino transferase AST [1] [IU/ml] | also measured
1.13 | 6.49 ± 0.92 | 0.75 ± 0.10 | 105.9 ± 11.7 | 0.81 ± 0.06 | 5.75 ± 0.8 | 378.2 ± 31.4 | 126.5 ± 19.4 | – | O=c1[nH]cc(F)c(=O)[nH]1 [Compound 5-FU, 5-Fluorouracil] | 5 (≈ 38.4 µM) | – | – | – | –
– | – | – | – | – | – | – | – | > 300 | Cc1ccc2c(N/N=C3\C(=O)Nc4ccccc43)cc(C)nc2n1 [Compound 8b, (3Z)-3-[2-(2,7-Dimethyl-1,8-naphthyridin-4-yl)hydrazinylidene]-1,3-dihydro-2H-indol-2-one] | – | – | – | – | –
– | – | – | – | – | – | – | – | > 300 | Cc1ccc2c(N/N=C3\C(=O)Nc4ccc(Cl)cc43)cc(C)nc2n1 [Compound 8c, (3Z)-5-Chloro-3-[2-(2,7-dimethyl-1,8-naphthyridin-4-yl)hydrazinylidene]-1,3-dihydro-2H-indol-2-one] | – | – | – | – | –
1.078 | 6.37 ± 0.85 | 0.81 ± 0.19 | 109.3 ± 14.2 | 0.78 ± 0.04 | 5.91 ± 0.63 | 21.94 ± 3.4 | 137.8 ± 17.10 | – | COc1cccc2c1C(=O)c1c(O)c3c(c(O)c1C2=O)C[C@@](O)(C(=O)CO)C[C@@H]3O[C@H]1C[C@H](N)[C@H](O)[C@H](C)O1 [Doxorubicin] | 3.56 (≈ 6.55 µM) | 59.26 ± 12.03 | 30.31 ± 5.14 | 147.22 | Alanine amino transferase ALT ([1]; listed as DOX): significantly higher; Alkaline phosphatase ALP ([1]; listed as DOX): significantly increased; Aspartate amino transferase AST ([1]; listed as DOX): significantly higher

SMILES | A/G ratio [1] | Albumin [1] [mg/d1] | Bilirubin [1] [mg/dL] | Cholestrol [1] [mg/dL] | Creatinine [1] [mg/dL] | Globulin [1] [mg/dL] | Total Lipids [1] [mg/dL] | Triglycerides [1] [mg/dL] | melting point [°C] | IC50 (HepG2 (Liver)) [mg/L] | Alanine amino transferase ALT [1] [IU/ml] | Alkaline phosphatase ALP [1] [k.k./dl] | Aspartate amino transferase AST [1] [IU/ml] | also measured
Cc1ccc2c(N/N=C/c3ccccc3[N+](=O)[O-])cc(C)nc2n1 [Compound 6, (E)-2-(2-Nitrobenzylidene)-1-(2,7-dimethyl-1,8-naphthyridin-5-yl)hydrazine] | 1.23 | 7.73 ± 0.52 | 0.76 ± 0.15 | 93.24 ± 19.53 | 0.71 ± 0.21 | 6.25 ± 0.82 | 326.32 ± 19.3 | 110.54 ± 17.8 | 255 to 256 | 0.885 (≈ 2.75 µM) | 46.09 ± 6.13 | 21.59 ± 3.42 | 112.81 ± 9.88 | Morphological changes of HepG2 cells (HepG2 cells; 24 hours, FIG. 7B): onset of apoptotic characteristics; Morphological changes of HepG2 cells (HepG2 cells; 48 hours, FIG. 7C): blebbing and loss of basal attachment and membrane asymmetry is markedly seen; Morphological variations of HepG2 cells (HepG2 cells; after 24 and 48 hrs, phase contrast microscopy): Changes in surface morphology; Morphological variations of HeLa cells (HeLa cells): Changes in surface morphology were observed; Alanine amino transferase ALT ([1]; listed as new compound): non-significant (n.s.) or slightly higher; Alkaline phosphatase ALP ([1]; listed as new compound): no significant changes; Aspartate amino transferase AST ([1]; listed as new compound): non-significant (n.s.) or slightly higher; Cancer cell growth in single-dose screening [2]: significant decreases in cancer cell growth

Source: patent publication US9855255B1, “Substituted naphthyridinyl hydrazines as anti-liver cancer agents” (KING SAUD UNIVERSITY, priority 2017, dated 2018)
